# Measurements reported in paper PMC6244214, “Pd-Catalyzed microwave-assisted synthesis of phosphonated 13α-estrones as potential OATP2B1, 17β-HSD1 and/or STS inhibitors” (Beilstein Journal of Organic Chemistry, 2018).
# Read-outs that look alike come from different tables or passages of the source.
# Experiments:
# [1] = target: T1, human placental steroid sulfatase (STS) (Homo sapiens, UniProt P08842); test: STS in vitro radiosubstrate incubation (estrone-3-sulfate to estrone conversion); type: biochemical; settings: relative conversion vs non-inhibited control (100%); test compound 10 μM; substrate E1S 1.0 μM; placental microsomes; n = 3; read-out: STS rel. conv. ± SD
# T1 construct: from tissue; host or cells: human term placenta, microsomes
# T1 sequence (P08842 22-583): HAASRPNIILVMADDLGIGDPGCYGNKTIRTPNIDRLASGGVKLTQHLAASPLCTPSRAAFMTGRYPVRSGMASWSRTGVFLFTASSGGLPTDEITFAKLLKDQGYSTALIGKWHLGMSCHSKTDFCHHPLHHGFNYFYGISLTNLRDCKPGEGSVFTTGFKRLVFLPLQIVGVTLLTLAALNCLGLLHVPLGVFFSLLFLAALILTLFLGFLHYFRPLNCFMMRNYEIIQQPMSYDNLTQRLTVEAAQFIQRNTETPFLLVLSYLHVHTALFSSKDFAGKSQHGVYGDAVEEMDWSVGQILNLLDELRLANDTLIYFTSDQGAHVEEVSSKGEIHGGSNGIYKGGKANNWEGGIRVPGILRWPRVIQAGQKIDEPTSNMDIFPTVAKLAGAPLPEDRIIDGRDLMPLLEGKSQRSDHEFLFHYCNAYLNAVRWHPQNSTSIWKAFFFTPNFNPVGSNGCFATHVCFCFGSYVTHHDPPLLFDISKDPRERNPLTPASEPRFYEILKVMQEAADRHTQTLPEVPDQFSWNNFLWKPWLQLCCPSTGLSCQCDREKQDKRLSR
# Protocol: (§1) The ability of the synthesized compounds 8–13 to inhibit activity of steroid sulfatase (STS) and 17β-hydroxysteroid dehydrogenase type 1 (17β-HSD1) was examined. In vitro radiosubstrate incubations were performed with adapted literature methodsS2–4 and human placenta served as source of the enzymes. Radiolabelled steroids were obtained from American Radiolabeled Chemicals (St. Louis, MO, USA). Other chemicals and solvents of analytical grade purity were purchased from Sigma (St. Louis, MO, USA), from Fluka (Buchs, Switzerland) or from Merck (Darmstadt, Germany).
# (§2) 3.2. Preparation of enzyme sources
# (§3) Human term placentae were collected immediately after delivery and stored frozen at −80 °C.
# (§4) Tissue specimens were homogenized with an Ultra-Turrax in 0.1 M HEPES buffer solution […]
# (§5) (pH 7.3) containing 1 mM EDTA and 1 mM dithiotreitol, and cytosol and microsomas were obtained with fractionated centrifugation. Application of the human tissue was approved by the institutional Human Investigation Review Board.
# (§6) 3.3. Incubation procedures
# (§7) Enzymatic incubations were carried out in the HEPES buffer medium at a final volume of 200
# (§8) µl. The substrate was added to the incubate in 20 μl of a 25 % v/v propylene glycol in HEPES buffer solution, whereas test compounds were applied in 10 μl of dimethyl sulfoxide solution.
# Incubations were performed at 37 °C and terminated by cooling and the addition of organic solvents of the subsequent extraction procedure. Control samples with no inhibitor and blank samples were incubated simultaneously. The radioactivity of the products formed was measured by means of liquid scintillation counting (LSC) and taken as indicator of the […]
# STS assays were performed using microsoma suspension and estrone-3-sulfate (E1S) substrate with [6,7-3H]estrone-3-sulfate tracer with incubations lasting for 20 min. Reactions were terminated by the addition of equal volume of methanol, and the product estrone (E1) was extracted with toluene.S4 […]
# (§9) In the general procedure, incubations were performed as described. Concentrations of the substrates were 1.0 μM, and the test compounds were applied at 10 μM final concentration in the incubate. Relative conversions compared to non-inhibited controls (100%) were determined. The assays were performed in triplicate, and the mean value and the standard deviation (SD) were calculated.
# (§10) In these cases, conversions were measured at 10–15 different concentrations in the appropriate interval between 0.001–50 μM. IC50 results were calculated by using unweighted iterative least squares logistic curve fitting by means of the “absolute IC50 calculation“ function of the GraphPad Prism 4.0 software (GraphPad Software, Inc., San Diego, CA, USA).
# [2] = target: T2, 17β-hydroxysteroid dehydrogenase type 1 (17β-HSD1) (Homo sapiens, UniProt P14061); test: 17β-HSD1 in vitro radiosubstrate incubation (estrone to 17β-estradiol conversion); type: biochemical; settings: for remaining activity at 10 µM: read-out: 17β-HSD1 rel. conv. ± SD
# T2 construct: from tissue; host or cells: human term placenta, cytosol
# T2 sequence (P14061 1-328): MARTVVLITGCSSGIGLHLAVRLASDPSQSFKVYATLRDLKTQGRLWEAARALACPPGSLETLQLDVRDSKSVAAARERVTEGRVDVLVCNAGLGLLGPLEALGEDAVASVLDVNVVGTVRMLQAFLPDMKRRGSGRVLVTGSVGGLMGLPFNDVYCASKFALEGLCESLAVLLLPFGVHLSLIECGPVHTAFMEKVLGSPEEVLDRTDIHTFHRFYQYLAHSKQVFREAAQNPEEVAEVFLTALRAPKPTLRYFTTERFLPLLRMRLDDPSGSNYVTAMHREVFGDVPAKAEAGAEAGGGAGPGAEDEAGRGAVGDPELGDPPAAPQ
# Protocol: as §1, §2, §3, §4, §5, §6, §7, §8
# Incubations were performed at 37 °C and terminated by cooling and the addition of organic solvents of the subsequent extraction procedure. Control samples with no inhibitor and blank samples were incubated simultaneously. […]
# In the 17β-HSD1 assays the cytosol was incubated using estrone (E1) substrate with [6,7-3H]estrone tracer and 0.1 mM NADPH cofactor excess. The incubation time was 2.5 min. The product 17β-estradiol (E2) was extracted with ethyl acetate and isolated by a TLC method.S5 […]
# as §9, §10
# human OATP2B1 = target: T3, human OATP2B1 (Homo sapiens, UniProt O94956); test: Cascade Blue uptake assay of OATP2B1 transport activity; type: cell-based
# T3 construct: expressed in transfected cells; host or cells: A431 cells
# T3 sequence (O94956 1-709): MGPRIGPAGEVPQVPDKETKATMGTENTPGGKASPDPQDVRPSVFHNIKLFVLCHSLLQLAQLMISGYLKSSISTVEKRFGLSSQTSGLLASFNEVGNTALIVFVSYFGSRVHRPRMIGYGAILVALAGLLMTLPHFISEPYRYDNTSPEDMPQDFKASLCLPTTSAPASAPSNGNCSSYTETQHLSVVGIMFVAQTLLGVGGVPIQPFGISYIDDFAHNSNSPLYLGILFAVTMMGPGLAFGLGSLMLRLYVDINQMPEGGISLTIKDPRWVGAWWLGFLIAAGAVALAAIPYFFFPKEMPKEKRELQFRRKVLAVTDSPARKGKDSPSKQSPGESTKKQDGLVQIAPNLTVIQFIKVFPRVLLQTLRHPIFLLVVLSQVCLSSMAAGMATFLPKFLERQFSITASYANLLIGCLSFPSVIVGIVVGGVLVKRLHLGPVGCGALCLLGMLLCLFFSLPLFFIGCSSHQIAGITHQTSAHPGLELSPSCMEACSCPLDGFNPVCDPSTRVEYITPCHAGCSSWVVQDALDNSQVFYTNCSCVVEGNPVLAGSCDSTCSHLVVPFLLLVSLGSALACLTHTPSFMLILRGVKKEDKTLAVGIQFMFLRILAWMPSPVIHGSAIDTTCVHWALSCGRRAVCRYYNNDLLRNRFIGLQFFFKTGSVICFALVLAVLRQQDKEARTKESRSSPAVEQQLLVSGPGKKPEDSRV
# Protocol: CascadeBlue assay.S1 A431 cells ([…] in 200 μl) overexpressing human OATP2B1 or transfected with the vector control were seeded on 96 well plates 16 hours prior to the transport measurement. Transport reaction was performed as described in.S1 Briefly, after washing the cells 3-times with 200 µl 1 × phosphate buffered saline (PBS) the cells were preincubated with test compounds in final concentrations from 0.03 to 50 µM or dimethyl sulfoxide (used as a solvent for the test compounds and serving as non-treated control) for 5 minutes at 37 °C. The reaction was started with the addition of 50 µl Cascade Blue (resulting in final concentration of 10 µM) and the cells were further incubated at 37 °C for 30 minutes.
# The reaction was stopped by the addition of 200 µl ice-cold 1 × PBS, and after 3 washing steps the fluorescence remaining in the cells was determined by Enspire fluorescent plate reader (Perkin Elmer) at 400 nm excitation and 419 nm emission wavelengths. Transport activity was determined by subtracting fluorescence in mock transfected cells. Kinetics of inhibition was determined by Hill fit using the Origin 8.6 software. […]
# [3] = A431 cells overexpressing human OATP2B1, Cascade Blue 10 μM, 30 min, 37 °C, read-out: OATP2B1 IC50 ± SD
Compound,remaining activity at 10 µM [1],remaining activity at 10 µM [2],IC50 (human OATP2B1),IC50 (human OATP2B1; [3]),"IC50 ([2]; human placental cytosol, estrone 1.0 μM, 0.1 mM NADPH, read-out: 17β-HSD1 IC50 ± SD)",IC50 [2]
"C[C@@]12CC[C@@H]3c4cc(P(=O)(c5ccccc5)c5ccccc5)c(OCc5ccccc5)cc4CC[C@H]3[C@@H]1CCC2=O [10b, (3-benzyloxy-13α-estra-1,3,5(10)-trien-17-on-2-yl)diphenylphosphine oxide]",85 ± 5%,73 ± 3%,1000 ± 100 nM,,,
"COc1ccc2c(c1)CC[C@@H]1[C@@H]2CC[C@@]2(C)C(=O)CC[C@@H]12 [13αE1OMe, reference compound]",,,,3400 ± 300 nM,,
"C[C@@]12CC[C@@H]3c4cc(P(=O)(c5ccccc5)c5ccccc5)c(O)cc4CC[C@H]3[C@@H]1CCC2=O [9b, (3-hydroxy-13α-estra-1,3,5(10)-trien-17-on-2-yl)diphenylphosphine oxide]",77 ± 10%,,2600 ± 200 nM,,180 ± 60 nM,
"CCOP(=O)(OCC)c1c(O)ccc2c1CC[C@@H]1[C@@H]2CC[C@@]2(C)C(=O)CC[C@@H]12 [12a, diethyl (3-hydroxy-13α-estra-1,3,5(10)-trien-17-on-4-yl)phosphonate]",93 ± 6%,84 ± 4%,1400 ± 100 nM,,,
"CCOP(=O)(OCC)c1c(OCc2ccccc2)ccc2c1CC[C@@H]1[C@@H]2CC[C@@]2(C)C(=O)CC[C@@H]12 [13a, diethyl (3-benzyloxy-13α-estra-1,3,5(10)-trien-17-on-4-yl)phosphonate]",87 ± 5%,92 ± 3%,300 ± 20 nM,,,
"COc1cc2c(cc1P(=O)(c1ccccc1)c1ccccc1)[C@H]1CC[C@@]3(C)C(=O)CC[C@H]3[C@@H]1CC2 [8b, (3-methoxy-13α-estra-1,3,5(10)-trien-17-on-2-yl)diphenylphosphine oxide]",80 ± 8%,,1200 ± 100 nM,,,4100 ± 1100 nM
"CCOP(=O)(OCC)c1cc2c(cc1O)CC[C@@H]1[C@@H]2CC[C@@]2(C)C(=O)CC[C@@H]12 [9a, diethyl (3-hydroxy-13α-estra-1,3,5(10)-trien-17-on-2-yl)phosphonate]",97 ± 5%,,2100 ± 200 nM,,,1500 ± 300 nM
"C[C@@]12CC[C@@H]3c4ccc(OCc5ccccc5)cc4CC[C@H]3[C@@H]1CCC2=O [13αE1OBn, reference compound]",,,,1700 ± 900 nM,,
"COc1ccc2c(c1P(=O)(c1ccccc1)c1ccccc1)CC[C@@H]1[C@@H]2CC[C@@]2(C)C(=O)CC[C@@H]12 [11b, (3-methoxy-13α-estra-1,3,5(10)-trien-17-on-4-yl)diphenylphosphine oxide]",80 ± 5%,106 ± 8%,2500 ± 400 nM,,,
"CCOP(=O)(OCC)c1c(OC)ccc2c1CC[C@@H]1[C@@H]2CC[C@@]2(C)C(=O)CC[C@@H]12 [11a, diethyl (3-methoxy-13α-estra-1,3,5(10)-trien-17-on-4-yl)phosphonate]",93 ± 7%,100 ± 5%,2800 ± 1500 nM,,,
"CCOP(=O)(OCC)c1cc2c(cc1OC)CC[C@@H]1[C@@H]2CC[C@@]2(C)C(=O)CC[C@@H]12 [8a, diethyl (3-methoxy-13α-estra-1,3,5(10)-trien-17-on-2-yl)phosphonate]",84 ± 4%,60 ± 3%,1800 ± 300 nM,,,
"C[C@@]12CC[C@@H]3c4ccc(OCc5ccccc5)c(P(=O)(c5ccccc5)c5ccccc5)c4CC[C@H]3[C@@H]1CCC2=O [13b, (3-benzyloxy-13α-estra-1,3,5(10)-trien-17-on-4-yl)diphenylphosphine oxide]",105 ± 7%,75 ± 2%,300 ± 20 nM,,,
"C[C@@]12CC[C@@H]3c4ccc(O)c(P(=O)(c5ccccc5)c5ccccc5)c4CC[C@H]3[C@@H]1CCC2=O [12b, (3-hydroxy-13α-estra-1,3,5(10)-trien-17-on-4-yl)diphenylphosphine oxide]",93 ± 4%,100 ± 5%,> 50000 nM,,,
"CCOP(=O)(OCC)c1cc2c(cc1OCc1ccccc1)CC[C@@H]1[C@@H]2CC[C@@]2(C)C(=O)CC[C@@H]12 [10a, diethyl (3-benzyloxy-13α-estra-1,3,5(10)-trien-17-on-2-yl)phosphonate]",85 ± 7%,64 ± 3%,200 ± 20 nM,,,
